Results reported in patent publication US20030153622A1, “Ophthalmic solution and contact lens solution” (MENICON CO., LTD., priority 2001, published 2003).

Experiment: Characteristics of Component B (isoelectric point; pH and osmotic pressure in 0.1 mol/L aqueous solution)
Type: physicochemical
Settings: for Isoelectric point: Component B; for Osmotic pressure / pH: Component B in 0.1 mol/L aqueous solution
Source text: As the Component A, polyhexamethylene biguamide (PHMB) was used. As the Component B (tonicity adjusting agent), different kinds of the amino-acid-based components having different isoelectric points as indicated in the following TABLE 2 were used. […] As the chelating agent, disodium salt of ethylenediamine tetraacetic acid (EDTA·2Na) was used.

SMILES	Isoelectric point	Osmotic pressure [mOsm/kg]	pH
N=C(N)NCCC[C@H](N)C(=O)O [arginine]	10.76	100	11.20
NCCS(=O)(=O)O [taurine]	4.50	106	5.19
Cl.NCCCC[C@H](N)C(=O)O [lysine hydrochloride]	9.74	105	5.91
CC(C)[C@H](N)C(=O)O [L-valine]	5.96	103	7.83
N[C@@H](Cc1ccccc1)C(=O)O [L-phenylalanine]	5.48	105	6.14
C[C@@H](O)[C@H](N)C(=O)O [L-threonine]	6.16	102	5.88
O=C(O)[C@@H]1C[C@@H](O)CN1 [L-oxyproline]	5.83	105	5.87
Cl.N=C(N)NCCC[C@H](N)C(=O)O [arginine hydrochloride]	10.76	181	5.62
NCCCC(=O)O [γ-aminobutyric acid]	7.30	107	5.96
Cl.N[C@@H](Cc1c[nH]cn1)C(=O)O [L-histidine hydrochloride]	7.59	105	5.80
CC(N)C(=O)O (racemic) [DL-alanine]	6.00	104	6.05
O=C(O)[C@@H]1CCCN1 [L-proline]	6.30	104	5.90
N[C@@H](CS)C(=O)O [L-cysteine]	5.07	102	5.86
NCCCCCC(=O)O [ε-aminocaproic acid]	7.60	106	7.54
N[C@@H](CO)C(=O)O [L-serine]	5.68	105	6.12
